Converted amounts (≈) assume the structure as drawn.
How the values were obtained:
Type in all cases: functional
Conditions in all cases: time 16-24 hrs
Staphylococcus aureus [1] = assay: Antibacterial activity against vancomycin-intermediate Staphylococcus aureus Mu50 incubated for 16 to 24 hrs by broth microdilution assay
Staphylococcus aureus [2] = assay: Antibacterial activity against methicillin-resistant Staphylococcus aureus USA300 LAC incubated for 16 to 24 hrs by broth microdilution assay
Enterococcus faecium [3] = assay: Antibacterial activity against vancomycin-resistant Enterococcus faecium Efm-HS-0649 harboring VanA phenotype incubated for 16 to 24 hrs by broth microdilution assay
Enterococcus faecium [4] = assay: Antibacterial activity against vancomycin-resistant Enterococcus faecium Efm-HS-08257 harboring VanM phenotype incubated for 16 to 24 hrs by broth microdilution assay
Enterococcus faecium [5] = assay: Antibacterial activity against vancomycin-resistant Enterococcus faecium Efm-HS-vb01 harboring VanB phenotype incubated for 16 to 24 hrs by broth microdilution assay
Enterococcus faecium [6] = assay: Antibacterial activity against vancomycin-resistant Enterococcus faecium Efm-HS-vb02 harboring VanB phenotype incubated for 16 to 24 hrs by broth microdilution assay
Escherichia coli = assay: Antibacterial activity against Escherichia coli AB1157 incubated for 16 to 24 hrs by broth microdilution assay
Acinetobacter baumannii [7] = assay: Antibacterial activity against carbapenem-resistant Acinetobacter baumannii CRAB-1 clinical isolate incubated for 16 to 24 hrs by broth microdilution assay
Acinetobacter baumannii [8] = assay: Antibacterial activity against Acinetobacter baumannii ATCC19606 incubated for 16 to 24 hrs by broth microdilution assay
Pseudomonas aeruginosa = assay: Antibacterial activity against Pseudomonas aeruginosa PAO1 incubated for 16 to 24 hrs by broth microdilution assay
Klebsiella pneumoniae = assay: Antibacterial activity against Klebsiella pneumoniae KP-1 incubated for 16 to 24 hrs by broth microdilution assay

SMILES | MIC (Staphylococcus aureus [1]) | MIC (Staphylococcus aureus [2]) | MIC (Enterococcus faecium [3]) | MIC (Enterococcus faecium [4]) | MIC (Enterococcus faecium [5]) | MIC (Enterococcus faecium [6]) | MIC (Escherichia coli) | MIC (Acinetobacter baumannii [7]) | MIC (Acinetobacter baumannii [8]) | MIC (Pseudomonas aeruginosa) | MIC (Klebsiella pneumoniae)
CN[C@H](CC(C)C)C(=O)N[C@H]1C(=O)N[C@@H](CC(N)=O)C(=O)N[C@H]2C(=O)N[C@H]3C(=O)N[C@H](C(=O)N[C@H](C(=O)NCCC[S+](C)CC(O)COc4ccc(-c5ccc(Cl)cc5)cc4)c4cc(O)cc(O)c4-c4cc3ccc4O)[C@H](O)c3ccc(c(Cl)c3)Oc3cc2cc(c3O[C@@H]2O[C@H](CO)[C@@H](O)[C@H](O)[C@H]2O[C@H]2C[C@](C)(N)[C@H](O)[C@H](C)O2)Oc2ccc(cc2Cl)[C@H]1O.O=C([O-])C(F)(F)F (stereo partly specified) | 0.25 µg/mL | ≤ 0.063 µg/mL | 2 µg/mL | 2 µg/mL | 4 µg/mL | 0.5 µg/mL | 16 µg/mL | 64 µg/mL | 16 µg/mL | > 128 µg/mL | > 128 µg/mL
CN[C@H](CC(C)C)C(=O)N[C@H]1C(=O)N[C@@H](CC(N)=O)C(=O)N[C@H]2C(=O)N[C@H]3C(=O)N[C@H](C(=O)N[C@H](C(=O)NCCCSCC(O)COc4ccc(-c5ccc(C(F)(F)F)cc5)cc4)c4cc(O)cc(O)c4-c4cc3ccc4O)[C@H](O)c3ccc(c(Cl)c3)Oc3cc2cc(c3O[C@@H]2O[C@H](CO)[C@@H](O)[C@H](O)[C@H]2O[C@H]2C[C@](C)(N)[C@H](O)[C@H](C)O2)Oc2ccc(cc2Cl)[C@H]1O (stereo partly specified) | 1 µg/mL (≈ 0.55 µM) | 1 µg/mL (≈ 0.55 µM) | 4 µg/mL (≈ 2.2 µM) | 2 µg/mL (≈ 1.1 µM) | 4 µg/mL (≈ 2.2 µM) | 2 µg/mL (≈ 1.1 µM) | > 128 µg/mL | > 128 µg/mL | > 128 µg/mL | > 128 µg/mL | > 128 µg/mL
CN[C@H](CC(C)C)C(=O)N[C@H]1C(=O)N[C@@H](CC(N)=O)C(=O)N[C@H]2C(=O)N[C@H]3C(=O)N[C@H](C(=O)N[C@H](C(=O)O)c4cc(O)cc(O)c4-c4cc3ccc4O)[C@H](O)c3ccc(c(Cl)c3)Oc3cc2cc(c3O[C@@H]2O[C@H](CO)[C@@H](O)[C@H](O)[C@H]2O[C@H]2C[C@](C)(NCCC[S+](C)C[C@H](O)COc3ccccc3)[C@H](O)[C@H](C)O2)Oc2ccc(cc2Cl)[C@H]1O.O=C([O-])C(F)(F)F (stereo partly specified) | 1 µg/mL | 0.125 µg/mL | 16 µg/mL | 16 µg/mL | 8 µg/mL | 4 µg/mL | 128 µg/mL | > 128 µg/mL | 128 µg/mL | > 128 µg/mL | > 128 µg/mL
CN[C@H](CC(C)C)C(=O)N[C@H]1C(=O)N[C@@H](CC(N)=O)C(=O)N[C@H]2C(=O)N[C@H]3C(=O)N[C@H](C(=O)N[C@H](C(=O)NCCC[S+](C)CC(O)COc4ccccc4Cl)c4cc(O)cc(O)c4-c4cc3ccc4O)[C@H](O)c3ccc(c(Cl)c3)Oc3cc2cc(c3O[C@@H]2O[C@H](CO)[C@@H](O)[C@H](O)[C@H]2O[C@H]2C[C@](C)(N)[C@H](O)[C@H](C)O2)Oc2ccc(cc2Cl)[C@H]1O.O=C([O-])C(F)(F)F (stereo partly specified) | 1 µg/mL | 0.25 µg/mL | 16 µg/mL | 8 µg/mL | 8 µg/mL | 2 µg/mL | 16 µg/mL | > 128 µg/mL | 64 µg/mL | > 128 µg/mL | > 128 µg/mL
CN[C@H](CC(C)C)C(=O)N[C@H]1C(=O)N[C@@H](CC(N)=O)C(=O)N[C@H]2C(=O)N[C@H]3C(=O)N[C@H](C(=O)N[C@H](C(=O)NCCC[S+](C)CC(O)COc4cccc(Cl)c4)c4cc(O)cc(O)c4-c4cc3ccc4O)[C@H](O)c3ccc(c(Cl)c3)Oc3cc2cc(c3O[C@@H]2O[C@H](CO)[C@@H](O)[C@H](O)[C@H]2O[C@H]2C[C@](C)(N)[C@H](O)[C@H](C)O2)Oc2ccc(cc2Cl)[C@H]1O.O=C([O-])C(F)(F)F (stereo partly specified) | 1 µg/mL | 0.125 µg/mL | 16 µg/mL | 4 µg/mL | 8 µg/mL | 2 µg/mL | 16 µg/mL | 64 µg/mL | 32 µg/mL | 128 µg/mL | > 128 µg/mL
CN[C@H](CC(C)C)C(=O)N[C@H]1C(=O)N[C@@H](CC(N)=O)C(=O)N[C@H]2C(=O)N[C@H]3C(=O)N[C@H](C(=O)N[C@H](C(=O)NCCC[S+](C)CC(O)COc4ccccc4)c4cc(O)cc(O)c4-c4cc3ccc4O)[C@H](O)c3ccc(c(Cl)c3)Oc3cc2cc(c3O[C@@H]2O[C@H](CO)[C@@H](O)[C@H](O)[C@H]2O[C@H]2C[C@](C)(N)[C@H](O)[C@H](C)O2)Oc2ccc(cc2Cl)[C@H]1O.O=C([O-])C(F)(F)F (stereo partly specified) | 2 µg/mL | 0.25 µg/mL | 32 µg/mL | 16 µg/mL | 16 µg/mL | 4 µg/mL | 16 µg/mL | > 128 µg/mL | 64 µg/mL | > 128 µg/mL | > 128 µg/mL

Reference: ChEMBL document CHEMBL6134868, “Novel Aryl Sulfonium Modification on Vancomycin to Tackle MRSA and VRE In Vitro and In Vivo through Dual Enhanced Cell-Wall and Membrane Inhibition” (J Med Chem, 2025)
